What was measured:
human iPS cells [1] = experiment: Fluorescence microscopic imaging of partially differentiated human iPS cells (donut-shaped colonies); type: cell-based; details: over-grown, 4 μM, 4.5 hours
Protocol: Human iPS cells (clone#201B7) were plated on SNL feeder cells in 96-well plate. […] These cells were incubated with 4 μM Compound 1 for 4.5 hours at 37° C. Fluorescence microscopic images were taken by using Carl Zeiss Axioskop.

human ES cells [2] = experiment: Fluorescence microscopic imaging of human ES cells and retinoic acid-differentiated cells; type: cell-based; details: 1 μM, 2 hours
Protocol: The hES cell line KhES-1 was maintained as described previously (Suemori, H. et al. Biochem. Biophys. Res. Commun. 2006, 345, 926-932). To induce differentiation of hESCs, cells seeded onto Matrigel-coated plate were cultured for 4 days with 500 nM all-trans retinoic acid (Sigma R2625) in DMEM supplemented with 10% FBS. After staining with 1 μM Compound 1 for 2 hours, cells were rinsed with PBS and kept in fresh medium (without dye). Fluorescent microscopy was performed by using Olympus IX71 with DP72.

human iPS cells [3] = experiment: Flow cytometry (FACS) of mixtures of human iPS cells and feeder cells; type: cell-based
Protocol: Human iPS cells (clone#201B7) cells (Takahashi, K. et al. Cell 2007, 131, 861-872) were plated at a density of 2×10^5 cells/well of 6-well plate on SNL feeder cells (McMahon, A. P. and Bradley, A., Cell, 62, 1073-1085, 1990). Six days after plating, the cells were incubated with 2 μM Compound 1 (Table 2) for 3 hours (fluorescence microscopic images were taken at this point). The cells were dissociated with Accutase (Invitrogen) into single cells and stained with a-SSEA-4-Alexa647 for 30 min at room temperature. After washing, FACS (FACS Aria II) analysis was performed.

human ES cells [4] = experiment: Microscopy and FACS of human ES cells and differentiated cells; type: cell-based
Protocol: Cells were prepared as above. After staining with 1 μM Compound 1 for 1 hour, cells were rinsed with PBS and cultured for additional 24 hours. Fluorescent microscopy was performed by using Olympus IX71 with DP72. CsA was added at the concentration of 10 μM during staining with Compound 1 and following culture until analysis. For FACS analysis, the cells were washed twice with ice-cold PBS and then dissociated with 0.25% trypsin-EDTA into a single cell suspension for direct analysis. The proportions of cells with Compound 1 were examined on a FACSCalibur flow cytometer (Becton Dickenson, Calif., USA) with reference to a baseline of untreated undifferentiated or differentiated hESCs.

ABCG2 = biological target: T1, ABCG2 (Homo sapiens, UniProt Q9UNQ0); experiment: Accumulation of fluorescent compound in cells with different ABCG2 expression; type: cell-based; details: stained cells regardless of expression level
T1 sequence (Q9UNQ0 1-655): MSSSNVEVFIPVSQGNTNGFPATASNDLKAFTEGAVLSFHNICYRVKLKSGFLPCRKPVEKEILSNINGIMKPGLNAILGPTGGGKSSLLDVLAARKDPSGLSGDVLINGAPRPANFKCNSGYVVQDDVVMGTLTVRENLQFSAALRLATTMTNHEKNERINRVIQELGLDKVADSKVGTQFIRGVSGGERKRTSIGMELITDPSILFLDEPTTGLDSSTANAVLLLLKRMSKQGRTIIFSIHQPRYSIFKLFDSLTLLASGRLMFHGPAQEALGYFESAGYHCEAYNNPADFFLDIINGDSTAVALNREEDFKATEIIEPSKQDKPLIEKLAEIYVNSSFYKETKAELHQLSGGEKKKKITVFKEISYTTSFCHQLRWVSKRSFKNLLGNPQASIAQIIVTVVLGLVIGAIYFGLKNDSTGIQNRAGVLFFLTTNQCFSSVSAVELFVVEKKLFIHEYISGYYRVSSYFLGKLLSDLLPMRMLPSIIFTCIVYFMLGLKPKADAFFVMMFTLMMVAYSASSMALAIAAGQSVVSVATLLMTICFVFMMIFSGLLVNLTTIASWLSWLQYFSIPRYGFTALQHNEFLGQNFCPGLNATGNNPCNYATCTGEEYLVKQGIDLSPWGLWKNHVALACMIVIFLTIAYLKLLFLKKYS
Protocol: (§1) Cells were subcultured in 35 mm/glass base dish (IWAKI) at a density of 5×10^5 cells per dish in DMEM containing 10% FBS for 24-48 hours. Then, cells were incubated in DMEM containing 10% FBS and the compounds for 2 hours at 37° C., washed with phosphate-buffered saline (PBS), and observed using a confocal microscope (LSM 700; Carl Zeiss).
(§2) MDR1-expressing model cell lines (KB/MDR1) were established from KB3-1, a cell line with no MDR1 expression. KB/MDR1 and KB3-1 were treated with Compound 1 for 2 hrs. Then, their images were observed under a fluorescent microscope (FIG. 4c, 4d). […] Similar experiments were conducted with ABCG2 and ABCC1 (MRP1).

ABCB1 (MDR1) [5] = experiment: Accumulation of fluorescent compound in KB3-1 and KB/MDR1 cells; type: cell-based, human; details: KB3-1 cells with no MDR1 expression, 2 hrs
Protocol: (§3) KB/MDR1, stably expressing human MDR1, and KB3-1 host cells (Ueda, K et al., PNAS 84, 3004-3008, 1987) were maintained in DMEM supplemented with 10% FBS in a humidified incubator (5% CO2) at 37° C. Cells were subcultured in 35 mm/glass base dish (IWAKI) at a density of 5×10^5 cells per dish in DMEM containing 10% FBS for 24-48 hours.

ABCB1 (MDR1) [6] = biological target: T2, ABCB1 (MDR1) (Homo sapiens, UniProt P08183); experiment: as above; type: cell-based
T2 construct: expressed in transfected cells; host or cells: KB/MDR1 (derived from KB3-1)
Protocol: as §3

ABCC1 (MRP1) = ABCC1 (MRP1) (Homo sapiens, UniProt P33527); experiment: Accumulation of fluorescent compound in cells with different ABCC1 (MRP1) expression; type: cell-based; details: stained cells regardless of expression level
Protocol: as §1, §2

human iPS cells [7] = experiment: Sub-cellular localization in human iPS cells (co-staining with MitoRed, CCCP); type: cell-based; details: for cells in which mitochondria are stained: human iPS cells and feeder cells; for sub-cellular localization: human iPS cells on feeder cells
Protocol: Human iPS cells (clone#201B7) were plated on SNL feeder cells in 24-well plate. One day after plating, the cells were incubated with 1 μM Compound 1 for 4 hours at 37° C. After removing Compound 1 by washing with PBS, the cells were incubated with 9.6 nM MitoRed for 30 min at 37° C. The cells were rinsed with PBS and kept in fresh medium (without dye). Fluorescence microscopic images were taken by using Carl Zeiss Axioinvert 100M

[8] = test system: mitochondrial proteins of human iPS cells; experiment: 2-DE and mass analysis of mitochondrial proteins labeled in human iPS cells; type: cell-based; details: 1 μM, 4 hours, 2-dimensional SDS-PAGE
Protocol: Human iPS cells were treated with the chloroacetyl derivative of Compound 1 (Compound 22) (1 μM) for 4 hours, and then washed twice with PBS. After treatment with CTK solution (Reprocell) to remove SNL feeder cells, human iPS cells were harvested with treatment of accutase. Mitochondria fraction was obtained from the cell pellet by using ProteoExtract® Cytosol/Mitochondria Fractionation kit according to the manufacturer's instruction. Isoelectric focusing (IEF) was performed by using ampholine (pH 3.5-10, Phamalyte 3-10 for IEF, GE Healthcare). Then, the IEF strips were separated on 10% SDS-PAGE gel for 2D analysis. 2D fluorescence image was acquired using the Typhoon 9400 scanner (GE healthcares) at excitation/emission wavelengths of 532 nm/580 nm. The fluorescence-labeled spots were excised from the gel for mass analysis.

human iPS cells [9] = experiment: Image-based screening: fluorescence staining of human iPS cells versus feeder cells; type: cell-based; details: fluorescence images, human iPS cells on SNL feeder cells, FIG. 1A
Protocol: Fluorescent-compound libraries were provided from Young-Tae Chang's group (Ahn, Y-H., Lee, J-S. and Chang, Y-T. J. Am. Chem. Soc. 2007, 129, 4510-4511). Human iPS cells (clone#[…]) were plated on SNL feeder cells in 96-well plate. Five days after plating, fluorescent compounds were added at the final concentration of 4 μM. After incubation overnight, fluorescence microscopic images were taken by using Carl Zeiss Axioskop.

[10] = doubly stained with Compound 1 and anti-SSEA-4 antibody
[11] = mixture of human iPS cells and feeder cells, 2 μM, 3 hours, flow cytometry

T2 sequence (P08183 whole entry): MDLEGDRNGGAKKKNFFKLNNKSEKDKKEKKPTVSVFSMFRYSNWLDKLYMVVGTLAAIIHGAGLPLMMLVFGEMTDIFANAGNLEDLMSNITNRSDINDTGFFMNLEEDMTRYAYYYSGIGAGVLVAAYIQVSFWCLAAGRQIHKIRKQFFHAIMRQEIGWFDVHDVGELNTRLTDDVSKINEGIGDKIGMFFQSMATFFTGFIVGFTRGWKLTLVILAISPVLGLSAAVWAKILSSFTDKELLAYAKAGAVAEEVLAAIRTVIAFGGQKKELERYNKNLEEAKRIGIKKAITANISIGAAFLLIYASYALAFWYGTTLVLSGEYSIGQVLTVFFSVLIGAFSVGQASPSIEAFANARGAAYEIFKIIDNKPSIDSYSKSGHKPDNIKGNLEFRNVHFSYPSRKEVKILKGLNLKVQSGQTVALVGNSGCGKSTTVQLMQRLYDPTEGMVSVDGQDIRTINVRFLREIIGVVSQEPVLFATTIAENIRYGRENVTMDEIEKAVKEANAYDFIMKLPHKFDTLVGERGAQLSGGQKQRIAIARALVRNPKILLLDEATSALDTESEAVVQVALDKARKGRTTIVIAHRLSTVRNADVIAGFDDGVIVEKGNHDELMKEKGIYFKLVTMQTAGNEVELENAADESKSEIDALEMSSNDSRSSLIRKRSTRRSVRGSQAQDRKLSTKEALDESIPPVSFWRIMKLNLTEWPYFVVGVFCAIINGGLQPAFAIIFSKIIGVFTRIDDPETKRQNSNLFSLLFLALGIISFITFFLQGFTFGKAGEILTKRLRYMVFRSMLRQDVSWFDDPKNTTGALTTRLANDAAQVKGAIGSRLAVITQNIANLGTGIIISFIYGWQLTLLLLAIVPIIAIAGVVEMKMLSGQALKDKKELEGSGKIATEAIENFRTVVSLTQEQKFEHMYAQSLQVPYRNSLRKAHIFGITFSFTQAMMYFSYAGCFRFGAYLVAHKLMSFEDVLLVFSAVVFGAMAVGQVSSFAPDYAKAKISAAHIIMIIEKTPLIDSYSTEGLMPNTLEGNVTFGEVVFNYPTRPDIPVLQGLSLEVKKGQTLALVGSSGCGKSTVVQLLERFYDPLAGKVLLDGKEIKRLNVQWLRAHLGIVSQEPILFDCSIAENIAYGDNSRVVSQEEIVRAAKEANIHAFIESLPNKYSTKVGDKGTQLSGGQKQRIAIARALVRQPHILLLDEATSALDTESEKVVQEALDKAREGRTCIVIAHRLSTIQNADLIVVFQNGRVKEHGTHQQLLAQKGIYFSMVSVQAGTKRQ
Sequence of ABCC1 (MRP1) (P33527 whole entry): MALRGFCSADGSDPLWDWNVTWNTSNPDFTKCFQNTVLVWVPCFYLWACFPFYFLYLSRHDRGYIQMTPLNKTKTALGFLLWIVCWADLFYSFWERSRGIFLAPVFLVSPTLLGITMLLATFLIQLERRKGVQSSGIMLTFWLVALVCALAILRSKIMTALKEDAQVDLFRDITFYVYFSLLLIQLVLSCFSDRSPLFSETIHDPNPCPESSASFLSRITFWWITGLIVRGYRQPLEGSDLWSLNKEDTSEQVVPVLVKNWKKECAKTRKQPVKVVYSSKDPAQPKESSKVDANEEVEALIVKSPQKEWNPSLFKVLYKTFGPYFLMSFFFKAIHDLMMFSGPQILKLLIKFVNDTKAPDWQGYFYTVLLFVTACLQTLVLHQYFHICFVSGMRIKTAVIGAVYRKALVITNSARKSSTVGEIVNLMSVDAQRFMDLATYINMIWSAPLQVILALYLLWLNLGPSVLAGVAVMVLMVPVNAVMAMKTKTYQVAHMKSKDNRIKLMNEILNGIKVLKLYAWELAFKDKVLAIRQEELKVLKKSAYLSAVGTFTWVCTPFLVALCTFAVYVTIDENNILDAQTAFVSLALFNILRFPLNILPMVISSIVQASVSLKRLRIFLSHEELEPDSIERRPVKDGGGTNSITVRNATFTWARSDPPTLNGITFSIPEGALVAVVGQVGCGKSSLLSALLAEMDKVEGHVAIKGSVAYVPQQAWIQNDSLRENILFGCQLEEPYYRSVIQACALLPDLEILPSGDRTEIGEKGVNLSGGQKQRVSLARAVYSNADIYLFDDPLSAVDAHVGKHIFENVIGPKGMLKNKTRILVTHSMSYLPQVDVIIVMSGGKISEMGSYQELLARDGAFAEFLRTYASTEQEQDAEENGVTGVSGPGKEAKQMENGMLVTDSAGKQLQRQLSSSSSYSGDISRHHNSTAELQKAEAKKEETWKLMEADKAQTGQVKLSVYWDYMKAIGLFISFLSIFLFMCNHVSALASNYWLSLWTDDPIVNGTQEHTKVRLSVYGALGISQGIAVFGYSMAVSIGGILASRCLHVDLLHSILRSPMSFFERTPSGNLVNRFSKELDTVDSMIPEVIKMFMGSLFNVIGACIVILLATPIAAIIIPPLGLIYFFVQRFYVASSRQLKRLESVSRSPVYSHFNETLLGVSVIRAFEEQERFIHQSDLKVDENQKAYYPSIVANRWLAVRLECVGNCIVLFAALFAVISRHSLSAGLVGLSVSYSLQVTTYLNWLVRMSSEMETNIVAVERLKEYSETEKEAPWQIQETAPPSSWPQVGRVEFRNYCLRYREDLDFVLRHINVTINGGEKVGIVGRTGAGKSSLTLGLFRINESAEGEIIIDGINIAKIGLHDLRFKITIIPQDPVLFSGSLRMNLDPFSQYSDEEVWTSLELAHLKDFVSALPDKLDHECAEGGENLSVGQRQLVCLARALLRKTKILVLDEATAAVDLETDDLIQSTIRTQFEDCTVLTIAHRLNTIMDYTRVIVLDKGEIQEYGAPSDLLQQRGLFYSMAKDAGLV

In the case of N=c1ccc2c(-c3ccc(F)cc3)c3ccc(N)cc3oc-2c1 [Compound 1], the “staining of donut-shaped iPS cell colonies” value (human iPS cells [1]) is reported as “selectively stained undifferentiated parts of those colonies but not the central parts”, the “staining after partial differentiation by retinoic acid” value (human ES cells [2]; 500 nM retinoic acid 4 days) is reported as “less densely stained parts of colonies” and the “staining of human ES cell colonies compared with feeder cells” value (human ES cells [2]) is reported as “stained more strongly than feeder cells”. The “SSEA-4-negative cells not stained by Compound 1” value (human iPS cells [3]; [10]) was 55.2%, the “SSEA-4-positive cells also stained by Compound 1” value (human iPS cells [3]; [10]) was 42.4% and the “specificity of staining for iPS cells” value (human iPS cells [3]; human iPS cells versus feeder cells) was “capable of staining iPS cells specifically”. The “Compound 1-negative population” value (human iPS cells [3]; [11]) was 56.6%, the “Compound 1-positive population” value (human iPS cells [3]; [11]) was 43.4% and the “fluorescence of human ES cells” value (human ES cells [4]; 1 μM, 1 hour, microscopy) was “strong fluorescence”. The “labeling of differentiated cells in the presence of cyclosporine A” value (human ES cells [4]; cyclosporine A (MDR1 inhibitor) 10 μM) was “even the differentiated cells were labeled”, the “fluorescence of differentiated cells” value (human ES cells [4]; derived from human ES cells by retinoic acid, 1 μM, 1 hour, microscopy) was “little” and the “staining of human ES cells relative to differentiated cells” value (human ES cells [4]; flow cytometric analysis) was about 100 times. The “substrate for ABCG2” value (ABCG2) was “not a substrate”, the “staining of KB3-1 cells” value (ABCB1 (MDR1) [5]) was “strongly stained” and the “fluorescent signals in MDR1-expressing cells” value (ABCB1 (MDR1) [6]; KB/MDR1 cells, 2 hrs) was “undetectable”. The “substrate for ABCB1 (MDR1)” value (ABCB1 (MDR1) [6]; KB/MDR1 versus KB3-1) was “good substrate”, the “substrate for ABCC1 (MRP1)” value (ABCC1 (MRP1)) was “not a substrate” and the “staining pattern in the presence of CCCP” value (human iPS cells [7]; CCCP 5 μM, 1 μM, 2 hours) was “remained the same”. The “cells in which mitochondria are stained” value (human iPS cells [7]) was “only in iPS cells” and the sub-cellular localization (human iPS cells [7]) was “overlaps with that of MitoTracker Red”.

For N=c1ccc2c(-c3ccc(F)cc3)c3ccc(NCCCCCCCCCCNC(=O)CCl)cc3oc-2c1 [Compound 22], the “fluorescently labeled mitochondrial protein identified by mass-sequencing” value [8] was “ADH1 protein”, the “selectivity for human iPS cells relative to Compound 1” value (human iPS cells [7]; human iPS cells) was “slightly less than that of Compound 1” and the sub-cellular localization (human iPS cells [7]) was “localized in mitochondria of human iPS cells”.

In the case of C/N=c1\ccc2c(-c3ccc(F)cc3)c3ccc(NC)cc3oc-2c1 [Compound 35], the “staining of human iPS cells compared with feeder cells” value (human iPS cells [9]) is reported as “stained human iPS cells stronger than feeder cells”.

N=c1ccc2c(-c3ccccc3F)c3ccc(N)cc3oc-2c1 [Compound 36] was tested, and the “staining of human iPS cells compared with feeder cells” value (human iPS cells [9]) was “stained human iPS cells stronger than feeder cells”.

ClCc1ccc(C2=c3cc4c5c(c3Oc3c2cc2c6c3CCCN6CCC2)CCC[N+]=5CCC4)cc1.[Cl-] [MitoRed, reference compound] was tested, and the “cells in which mitochondria are stained” value (human iPS cells [7]) was “both in human iPS cells and feeder cells”.

From patent US9335323B2, “Method for sorting of pluripotent cells” (KYOTO UNIVERSITY, priority 2012, dated 2016)
